Read-outs that look alike come from different tables or passages of the source.
Assays:
[1] = dog, in vivo
Protocol: The study, including all analyses and calculations, were performed by WIL Research, France, in compliance with Good Laboratory Practices (GLP).

[2] = Single and multiple-dose open safety and tolerability study, pharmacokinetics of pemirolast potassium tablets in humans; type: in vivo, human; details: for Cmax: human, plasma; for Cmax / Cmax, mean: multiple dose, healthy male subjects, N = 6
Protocol: This study comprised 18 healthy male subjects, 18-45 years of age, and was a single and multiple-dose, open study assessing the safety and tolerability of pemirolast potassium tablets (10 mg, Ulgixal™ tablets) with the doses 10, 30 and 50 mg (containing 8.5, 25.5 and 42.5 mg pemirolast free acid, respectively) b.i.d. (6 subjects in each dose group). The subjects received a single dose on the first day, then b.i.d. for three days and a single dose on the fifth day. The study was performed at the Berzelius Clinical Research Center AB in Linköping, Sweden. All laboratory pharmacokinetic analyses were performed by Quintiles AB, Uppsala, Sweden. Pharmacokinetic calculations were performed by Pharm Assist Sweden AB, Uppsala, Sweden. Mean Cmax data after multiple dosing are shown in and Table 1, and mean plasma concentrations over time on Day 5 are shown in FIG. 1.

hERG potassium channel = hERG potassium channel (Homo sapiens, UniProt Q12809)
Chain of hERG potassium channel (Q12809 whole entry): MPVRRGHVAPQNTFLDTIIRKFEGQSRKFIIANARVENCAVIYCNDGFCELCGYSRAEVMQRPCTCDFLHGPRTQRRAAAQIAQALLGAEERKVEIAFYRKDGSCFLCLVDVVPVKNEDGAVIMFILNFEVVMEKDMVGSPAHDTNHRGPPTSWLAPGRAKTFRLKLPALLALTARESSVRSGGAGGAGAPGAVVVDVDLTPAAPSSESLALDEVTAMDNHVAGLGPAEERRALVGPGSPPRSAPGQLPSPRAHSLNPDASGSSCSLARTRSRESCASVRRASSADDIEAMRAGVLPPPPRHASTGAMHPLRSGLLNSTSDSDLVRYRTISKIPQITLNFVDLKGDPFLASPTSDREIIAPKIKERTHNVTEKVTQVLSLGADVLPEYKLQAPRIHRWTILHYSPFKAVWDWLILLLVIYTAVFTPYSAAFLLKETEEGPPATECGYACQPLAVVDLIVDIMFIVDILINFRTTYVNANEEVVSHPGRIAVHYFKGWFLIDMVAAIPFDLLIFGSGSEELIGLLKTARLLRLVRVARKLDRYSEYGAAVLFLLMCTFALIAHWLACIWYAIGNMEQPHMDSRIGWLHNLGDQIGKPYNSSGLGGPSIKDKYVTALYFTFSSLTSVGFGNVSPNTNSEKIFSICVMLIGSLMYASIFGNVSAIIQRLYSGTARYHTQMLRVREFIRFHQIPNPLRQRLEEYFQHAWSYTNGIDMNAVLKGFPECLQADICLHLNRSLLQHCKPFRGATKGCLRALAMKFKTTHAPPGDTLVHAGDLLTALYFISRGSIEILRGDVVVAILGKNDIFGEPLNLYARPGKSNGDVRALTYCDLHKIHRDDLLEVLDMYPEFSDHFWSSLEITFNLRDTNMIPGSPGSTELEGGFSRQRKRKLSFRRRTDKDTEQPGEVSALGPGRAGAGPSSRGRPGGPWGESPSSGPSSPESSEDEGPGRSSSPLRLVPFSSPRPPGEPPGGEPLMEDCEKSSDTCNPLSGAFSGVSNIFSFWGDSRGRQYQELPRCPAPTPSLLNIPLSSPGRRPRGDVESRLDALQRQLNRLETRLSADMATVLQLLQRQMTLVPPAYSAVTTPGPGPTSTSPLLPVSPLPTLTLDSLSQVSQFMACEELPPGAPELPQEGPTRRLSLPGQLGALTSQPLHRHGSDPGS
Protocol: This study was performed by PhysioStim, France, a GLP compliant facility.
The effects of pemirolast on hERG currents in HEK-293 cells stably expressing the hERG potassium channel were studied using patch-clamp technique.

[3] = Toxicokinetics of pemirolast in the dog, 7-day oral repeated dose; parameters: species or system dog (Beagles); details: Beagle, in vivo, 75 mg/kg daily oral, 7th day
From the text: There were no major differences in kinetics between males and females.

asthma patients [4] = assay: Clinical trial: adverse events, vital signs and laboratory tests; type: in vivo, human; details: single oral doses of 40 mg and 400 mg
[5] = tested on: airway hyperresponsiveness to mannitol challenge in asthma patients; assay: Clinical trial: mannitol challenge test (PD15 for mannitol) in asthma patients; type: in vivo, human; details: for Mannitol dose tolerated (PD15) at the placebo visit; reduction in AHR/BHR: n=4, FIG. 2
Protocol: This study comprised male and female asthma patients (18 to 46 years of age) with a positive asthma test (as determined by a mannitol challenge test (vide infra) performed within 15 days prior to enrolment at the first screening visit, Visit 1).
It was a double-blind, randomized, placebo-controlled, cross-over trial assessing the efficacy of orally administered single doses of placebo and 40 mg and 400 mg of pemirolast (immediate release tablets containing pemirolast sodium hemihydrate, as well as microcrystalline cellulose, mannitol, copovidone fine, croscarmellose sodium, anhydrous colloidal silica and magnesium stearate) in patients challenged with mannitol inhalation as described below.
The patients were exposed to the different treatments at three separate hospital visits at least 2 (mean 6.8, median 6) days apart. The data reported in FIGS. 2 and 3 below represent the patients that received placebo treatment at the first visit (n=8) or placebo at the second visit (after 40 mg at the first visit (n=4) or after 400 mg at the first visit (n=4)).
All doses were administered 3 hours before initiation of the mannitol challenge test to ensure peak plasma concentrations of pemirolast when the mannitol challenge was performed (blood samples for analysing plasma concentrations of pemirolast were collected 3 hours after drug administration).
There were 5 visits during the trial: A screening visit (Visit 1, within 15 days before Visit 2), three visits for treatment with Investigational Medicinal Products (IMP; pemirolast 40 or 400 mg, or placebo) (Visit 2-4, spaced at least 2 days apart), and a final follow-up visit by telephone (Visit 5, at least 2, but less than 4 days after Visit 4 and within 30 days of Visit 2). […]

asthma patients [6] = assay: Clinical trial: FEV1 before and 3 hours after treatment; type: in vivo, human; details: 3 hours after an oral dose of 400 mg; 3.58±0.86 L before treatment; mean ±SD, n=22
[7] = Later pharmacokinetic studies in healthy volunteers, multiple doses b.i.d. for three and a half days; type: in vivo, human; details: for Cmax: human, plasma, oral, read-out: Actual Cmax
From the text: Later pharmacokinetic studies in healthy volunteers (7 to 8 in each group) have shown that actual Cmax values for various multiple doses (b.i.d. for three and a half days) are as follows: […]

[8] = tested on: airway or bronchial hyperresponsiveness; details: 50 mg doses twice daily in humans (Kemp et al 1992); cited from earlier work
[9] = tested on: 11β-PGF2α (mast cell biomarker prostaglandin D2 metabolite); assay: Clinical trial: urinary excretion of PGD2 metabolite 11β-PGF2α (EIA); type: in vivo, human; details: patients treated at least 3 days before with 40 mg or 400 mg, 4+4 patients, FIG. 3
Protocol: A secondary endpoint in the study was to analyse changes in urinary excretion of a metabolite (11β-prostaglandin (PG) F2α) of the lung mast cell mediator/biomarker prostaglandin D2. 11β-PGF2α analysis was performed in unextracted urine samples using a validated enzyme immunoassays (EIA) kit from Cayman Chemical, Ann Arbor, Mich., USA (Item no 516521). […]

[10] = Clinical trial: plasma pemirolast concentration by LC-MS/MS; type: in vivo; details: human, 40 and 400 mg single oral doses, asthma patients
Protocol: All doses were administered 3 hours before initiation of the mannitol challenge test to ensure peak plasma concentrations of pemirolast when the mannitol challenge was performed (blood samples for analysing plasma concentrations of pemirolast were collected 3 hours after drug administration). All laboratory pharmacokinetic analyses were performed by Clinical Pharmacology, Karolinska University Hospital, Stockholm, Sweden. Briefly, the concentration of pemirolast in human plasma was determined by solid phase extraction and liquid chromatography followed by tandem mass spectrometric detection (LC-MS/MS). The analytical method, utilizing a 200 μL sample aliquot, has a calibration range of 4.00-4000 ng/mL, with a lower limit of quantification (LLOQ) set at 4.00 ng/mL.

[11] = 10 mg pemirolast potassium (8.5 mg free acid) oral b.i.d.
[12] = 30 mg pemirolast potassium (25.5 mg free acid) oral b.i.d.
[13] = 50 mg pemirolast potassium (42.5 mg free acid) oral b.i.d.

Q: With `Cc1cccn2c(=O)c(-c3nnn[nH]3)cnc12` [pemirolast potassium] as the molecule, how does the Safe chronic dose [1] read?
A: The Safe chronic dose was 75 mg/kg daily.

Q: And the Cmax [2, 11]?
A: Its Cmax is 730 ng/mL.

Q: And the Cmax [2, 12]?
A: Its Cmax is 2040 ng/mL.

Q: And the Cmax [2, 13]?
A: The Cmax was 3420 ng/mL.

Q: What about the “Decrease of hERG tail current amplitude” value (hERG potassium channel; 2.7 μg/mL) of the same molecule?
A: The value was 5.4%.

Q: What about the “Decrease of hERG tail current amplitude” value (hERG potassium channel; 8 μg/mL) of the same molecule?
A: The value was 10.2%.

Q: What about the “Decrease of hERG tail current amplitude” value (hERG potassium channel; 26.6 μg/mL) of the same molecule?
A: Its value is 14.1%.

Q: What about the “Decrease of hERG tail current amplitude” value (hERG potassium channel; 79.9 μg/mL) of the same molecule?
A: The value was 19.0%.

Q: And the Cmax ([3]; female dogs (n = 3))?
A: The Cmax was 150000 ng/mL.

Q: What about the Cmax ([3]; male dogs (n = 3)) of the same molecule?
A: The Cmax was 168000 ng/mL.

Q: What does the source list for `Cc1cccn2c(=O)c(-c3nnn[nH]3)cnc12` [pemirolast]?
A: Adverse events, vital signs, physical examination, laboratory tests (asthma patients [4]): no serious adverse events; Mannitol PD15 ([5]; 3 hour pre-treatment, single oral dose, asthma patients): increased; Mannitol dose tolerated (PD15) at the placebo visit; reduction in AHR/BHR ([5]; single 40 mg oral dose before the placebo treatment): not seen; Mannitol dose tolerated (PD15) at the placebo visit; reduction in AHR/BHR ([5]; single 400 mg oral dose at least 3 days before placebo/mannitol): tolerated a much higher dose of mannitol; FEV1 (asthma patients [6]): 3.55 ± 0.84 L; Safety and tolerability ([7]; 80, 200 and 320 mg b.i.d. for three and a half days): safe and well-tolerated; Cmax ([7]; 80 mg b.i.d. for three and a half days): 8840 ng/mL; Cmax ([7]; 200 mg b.i.d. for three and a half days): 32500 ng/mL; Cmax ([7]; 320 mg b.i.d. for three and a half days): 51000 ng/mL; Cmax, mean [2, 11]: 730 ng/mL; Cmax, mean [2, 12]: 2040 ng/mL; Cmax, mean [2, 13]: 3420 ng/mL; Predicted Cmax ([2]; predicted for 125 mg, linear extrapolation from 8.5 mg multiple dose): 10680 ng/mL; Predicted Cmax ([2]; predicted for 125 mg, linear extrapolation from 25.5 mg multiple dose): 9980 ng/mL; Predicted Cmax ([2]; predicted for 125 mg, linear extrapolation from 42.5 mg multiple dose): 10070 ng/mL; Predicted Cmax ([2]; predicted for 200 mg, linear extrapolation from 8.5 mg multiple dose): 17080 ng/mL; Predicted Cmax ([2]; predicted for 200 mg, linear extrapolation from 25.5 mg multiple dose): 15980 ng/mL; Predicted Cmax ([2]; predicted for 200 mg, linear extrapolation from 42.5 mg multiple dose): 16120 ng/mL; Predicted Cmax ([2]; predicted for 400 mg, linear extrapolation from 8.5 mg multiple dose): 34160 ng/mL; Predicted Cmax ([2]; predicted for 400 mg, linear extrapolation from 25.5 mg multiple dose): 31950 ng/mL; Predicted Cmax ([2]; predicted for 400 mg, linear extrapolation from 42.5 mg multiple dose): 32230 ng/mL; Effect on airway or bronchial hyperresponsiveness [8]: no effect whatsoever; Urinary levels of the PGD2 biomarker (11β-PGF2α), 40 mg versus 400 mg [9]: did not differ; half-life [10]: 4 to 7 h

Source: patent US9415051B1, “Use of pemirolast” (priority 2015, dated 2016)
